Assay results reported in PubChem BioAssay AID1259407 (Chemical Carcinogenesis Research Information System (CCRIS), 2018).
Active and inactive are the calls of the source. How the calls were made is not given here.

System: CCRIS mutagenicity, Ames/micronucleus/aberration tests
Assay: CCRIS mutagenicity studies

## O=C1OC(=O)c2c(Cl)c(Cl)c(Cl)c(Cl)c21
End Point: IN VITRO CHROMOSOMAL ABERRATIONS, Test System: CHINESE HAMSTER OVARY CELLS, Metabolic Activation: NONE
  mutagenic call: inactive; negative
End Point: IN VITRO CHROMOSOMAL ABERRATIONS, Test System: CHINESE HAMSTER OVARY CELLS, Metabolic Activation: RAT, LIVER, S-9, AROCLOR 1254
  mutagenic call: inactive; negative
Test System: AMES SALMONELLA TYPHIMURIUM, Strain/Indicator: TA98, Metabolic Activation: HAMSTER, LIVER, S-9, AROCLOR 1254 (10%), Method: PREINCUBATION
  mutagenic call: inactive; negative
Test System: AMES SALMONELLA TYPHIMURIUM, Strain/Indicator: TA98, Metabolic Activation: NONE, Method: PREINCUBATION
  mutagenic call: inactive; negative
Test System: AMES SALMONELLA TYPHIMURIUM, Strain/Indicator: TA98, Metabolic Activation: RAT, LIVER, S-9, AROCLOR 1254 (10%), Method: PREINCUBATION
  mutagenic call: inactive; negative
Test System: AMES SALMONELLA TYPHIMURIUM, Strain/Indicator: TA100, Metabolic Activation: HAMSTER, LIVER, S-9, AROCLOR 1254 (10%), Method: PREINCUBATION
  mutagenic call: inactive; negative
Test System: AMES SALMONELLA TYPHIMURIUM, Strain/Indicator: TA100, Metabolic Activation: NONE, Method: PREINCUBATION
  mutagenic call: inactive; negative
Test System: AMES SALMONELLA TYPHIMURIUM, Strain/Indicator: TA100, Metabolic Activation: RAT, LIVER, S-9, AROCLOR 1254 (10%), Method: PREINCUBATION
  mutagenic call: inactive; negative
Test System: AMES SALMONELLA TYPHIMURIUM, Strain/Indicator: TA1535, Metabolic Activation: HAMSTER, LIVER, S-9, AROCLOR 1254 (10%), Method: PREINCUBATION
  mutagenic call: inactive; negative
Test System: AMES SALMONELLA TYPHIMURIUM, Strain/Indicator: TA1535, Metabolic Activation: NONE, Method: PREINCUBATION
  mutagenic call: inactive; negative
Test System: AMES SALMONELLA TYPHIMURIUM, Strain/Indicator: TA1535, Metabolic Activation: RAT, LIVER, S-9, AROCLOR 1254 (10%), Method: PREINCUBATION
  mutagenic call: inactive; negative
Test System: AMES SALMONELLA TYPHIMURIUM, Strain/Indicator: TA1537, Metabolic Activation: HAMSTER, LIVER, S-9, AROCLOR 1254 (10%), Method: PREINCUBATION
  mutagenic call: inactive; negative
Test System: AMES SALMONELLA TYPHIMURIUM, Strain/Indicator: TA1537, Metabolic Activation: NONE, Method: PREINCUBATION
  mutagenic call: inactive; negative
Test System: AMES SALMONELLA TYPHIMURIUM, Strain/Indicator: TA1537, Metabolic Activation: RAT, LIVER, S-9, AROCLOR 1254 (10%), Method: PREINCUBATION
  mutagenic call: inactive; negative

## Cc1cccc(Nc2cc(Cl)nc(SCC(=O)NCCO)n2)c1C
Test System: AMES SALMONELLA TYPHIMURIUM, Strain/Indicator: TA98, Metabolic Activation: NONE
  mutagenic call: inactive; negative
Test System: AMES SALMONELLA TYPHIMURIUM, Strain/Indicator: TA98, Metabolic Activation: RAT, LIVER, S-9, AROCLOR 1254
  mutagenic call: inactive; negative
Test System: AMES SALMONELLA TYPHIMURIUM, Strain/Indicator: TA102, Metabolic Activation: NONE
  mutagenic call: inactive; negative
Test System: AMES SALMONELLA TYPHIMURIUM, Strain/Indicator: TA102, Metabolic Activation: RAT, LIVER, S-9, AROCLOR 1254
  mutagenic call: inactive; negative
Test System: AMES SALMONELLA TYPHIMURIUM, Strain/Indicator: TA104, Metabolic Activation: NONE
  mutagenic call: inactive; negative
Test System: AMES SALMONELLA TYPHIMURIUM, Strain/Indicator: TA104, Metabolic Activation: RAT, LIVER, S-9, AROCLOR 1254
  mutagenic call: inactive; negative
Test System: UDS RAT HEPATOCYTES, Strain/Indicator: THY INCORP, Metabolic Activation: NONE, Method: LIQUID SCINTILLATION COUNTING
  mutagenic call: active; positive

## O=C(NC(Cc1cc(=O)[nH]c2ccccc12)C(=O)O)c1ccc(Cl)cc1 (stereo not drawn)
Test System: AMES SALMONELLA TYPHIMURIUM, Strain/Indicator: TA98, Metabolic Activation: NONE, Method: STANDARD PLATE
  mutagenic call: inactive; negative
Test System: AMES SALMONELLA TYPHIMURIUM, Strain/Indicator: TA98, Metabolic Activation: S-9, Method: STANDARD PLATE
  mutagenic call: inactive; negative
Test System: AMES SALMONELLA TYPHIMURIUM, Strain/Indicator: TA100, Metabolic Activation: NONE, Method: STANDARD PLATE
  mutagenic call: inactive; negative
Test System: AMES SALMONELLA TYPHIMURIUM, Strain/Indicator: TA100, Metabolic Activation: S-9, Method: STANDARD PLATE
  mutagenic call: inactive; negative
Test System: AMES SALMONELLA TYPHIMURIUM, Strain/Indicator: TA1535, Metabolic Activation: NONE, Method: STANDARD PLATE
  mutagenic call: inactive; negative
Test System: AMES SALMONELLA TYPHIMURIUM, Strain/Indicator: TA1535, Metabolic Activation: S-9, Method: STANDARD PLATE
  mutagenic call: inactive; negative
Test System: AMES SALMONELLA TYPHIMURIUM, Strain/Indicator: TA1537, Metabolic Activation: NONE, Method: STANDARD PLATE
  mutagenic call: inactive; negative
Test System: AMES SALMONELLA TYPHIMURIUM, Strain/Indicator: TA1537, Metabolic Activation: S-9, Method: STANDARD PLATE
  mutagenic call: inactive; negative
Test System: AMES SALMONELLA TYPHIMURIUM, Strain/Indicator: TA1538, Metabolic Activation: NONE, Method: STANDARD PLATE
  mutagenic call: inactive; negative
Test System: AMES SALMONELLA TYPHIMURIUM, Strain/Indicator: TA1538, Metabolic Activation: S-9, Method: STANDARD PLATE
  mutagenic call: inactive; negative
Test System: E.COLI, Strain/Indicator: WP2 UVRA, Metabolic Activation: NONE, Method: STANDARD PLATE
  mutagenic call: inactive; negative
Test System: E.COLI, Strain/Indicator: WP2 UVRA, Metabolic Activation: S-9, Method: STANDARD PLATE
  mutagenic call: inactive; negative
